US20240425464A1, “Substituted Monohydrazides as Potent Antifungal Agents” (University of Kentucky Research Foundation, priority 2023, published 2024)
≈ marks a conversion by molar mass, not a printed value. Like-named read-outs stand apart in the source and are kept apart here.

Key:
[1] = tested on: Candida auris strain AR Bank #384 (K); test: MIC determination by in vitro antifungal assay; format: cell-based
Procedure: (§1) The antifungal agent amphotericin B (AmB) was purchased from VWR (Radnor PA, USA). AmB was dissolved in DMSO at a final concentration of 5 mg/mL and was stored at −20° C., protected from light. Candida albicans American Type Culture Collection (ATCC) 10231 (strain A), C. albicans ATCC 64124 (B), and C. albicans ATCC MYA-2876 (C) were obtained from Utah State University. C. albicans ATCC 90819 (D), C. albicans ATCC MYA-2310 (E), C. albicans ATCC MYA-1237 (F), C. albicans ATCC MYA-1003 (G), Candida glabrata ATCC 2001 (H), Candida krusei ATCC 6258 (I), Candida parapsilosis ATCC 22019 (J), Cryptococcus neoformans ATCC MYA-895 (M), Aspergillus terreus ATCC MYA-3633 (N), and Aspergillus flavus ATCC MYA-3631 (0) were obtained from the American Type Culture Collection (ATCC; Manassas, VA, USA). Aspergillus nidulans ATCC 38163 (P) was obtained from University of Kentucky. Clinically derived Aspergillus fumigatus NRRL 163 (Q), A. fumigatus NRRL 5109 (R), and A. fumigatus NRRL 6113 (S) were obtained from Northern Regional Research Laboratory (NRRL). Candida auris 384 (K), C. auris 390 (L), and fungal strains 381-400 (including 10 C. auris (AR Bank #381-390), 3 Candida duobushaemulonii (AR Bank #391, AR Bank #392, and AR Bank #394), 2 Candida haemulonii (AR Bank #393 and AR Bank #395), 1 Kodameae ohmeri (AR Bank #396), 1 C. krusei (AR Bank #397), 1 Candida lusitaniae (AR Bank #398), and 2 Saccharomyces cerevisiae strains (AR Bank #399 and AR Bank #400)) were part of a larger fungal library from the AR Bank maintained by the Centers for Disease Control and Prevention (CDC; Atlanta, GA, USA). Filamentous fungi and yeasts were cultivated at 35° C. in RPMI 1640 medium (with L-glutamine, without sodium bicarbonate, Sigma-Aldrich, St. Louis, MO) buffered to a pH of 7.0 with 0.165 M morpholinepropanesulfonic acid (MOPS) buffer (Sigma-Aldrich). For cytotoxicity assays, HepG2 and the mouse macrophage cell line J774A.1 were obtained from University of Kentucky. The human embryonic kidney cell line, HEK-293, was bought from the ATCC. Mammalian cells were grown in Dulbecco's Modified Eagle's Medium (DMEM) (from VWR) with 10% fetal bovine serum (FBS) (from VWR) and 1% Pen/Strep (from ATCC). Cell lines were cultured at 37° C. with 5% CO2 and passaged by trypsinization with 0.05% trypsin: 0.53 mM EDTA (from Sigma-Aldrich).
(§2) From the actively growing yeast culture, 100 µL were then transferred to 900 μL of RPMI 1640 medium and re-adjusted to achieve OD600 of 0.12 (˜1×10^6 CFU/mL). The cell suspension was further diluted to achieve 1:100 in RPMI 1640 medium.
(§3) Finally, the activity of these monohydrazides was explored against […] non-Candida strains: Cryptococcus neoformans ATCC MYA-895 (M), Aspergillus terreus ATCC MYA-3633 (N), Aspergillus flavus ATCC MYA-3631 (O), Aspergillus nidulans ATCC 38163 (P), Aspergillus fumigatus NRRL 163 (Q), A. fumigatus NRRL 5109 (R), and A. fumigatus NRRL 6113 (S) (Tables 1A and 1B). The double dilution method was used with concentrations ranging from 0.06 to 31.3 j·tg mL^−1 for monohydrazides 1a-9j, and the commercially available positive antifungal control amphotericin B (AmB).

[2] = tested on: C. auris strain AR Bank #390 (L); test: MIC determination by in vitro antifungal assay; format: cell-based, Candida auris
Procedure: as §1, §2, §3

[3] = strain K = C. auris AR Bank # 0384 (Tables 1A/1B)
[4] = strain L = C. auris AR Bank # 0390 (Tables 1A/1B)
[5] = Candidozyma auris, C. auris AR Bank # 384 (K) (Table 2B), read-out: MIC
[6] = Candidozyma auris, strain K = C. auris AR Bank # 0384 (Tables 1A/1B), read-out: MIC
[7] = Candidozyma auris, C. auris AR Bank # 390 (L) (Table 2B), read-out: MIC
[8] = Candidozyma auris, strain L = C. auris AR Bank # 0390 (Tables 1A/1B), read-out: MIC
[9] = Candidozyma auris, C. auris AR Bank #384 (K), read-out: MIC
[10] = Candidozyma auris, C. auris AR Bank #390 (L), read-out: MIC

Row | Structure (SMILES) | MIC [1, 3] [μg/mL^−1] | MIC [2, 4] [μg/mL^−1] | MIC [1, 6] [µg/mL] | MIC [2, 8] [µg/mL] | further results
1 | C[C@@H]1[C@H](O)[C@@H](C)/C=C/C=C/C=C/C=C/C=C/C=C/C=C/[C@H](O[C@@H]2O[C@H](C)[C@@H](O)[C@H](N)[C@@H]2O)C[C@@H]2O[C@](O)(C[C@@H](O)C[C@@H](O)[C@H](O)CC[C@@H](O)C[C@@H](O)CC(=O)O[C@H]1C)C[C@H](O)[C@H]2C(=O)O [AmB, amphotericin B, reference compound] | 1.95 | 1.95 | – | – | MIC ([1]; C. auris AR Bank #384 (K)): 1.95 μg/mL^−1; MIC ([1]; C. auris AR Bank # 384 (K) (Table 2B)): 1.95 μg/mL^−1; MIC ([2]; C. auris AR Bank #390 (L)): 1.95 μg/mL^−1; MIC ([2]; C. auris AR Bank # 390 (L) (Table 2B)): 1.95 μg/mL^−1
2 | O=C(NNc1cccc(F)c1)c1ccc(F)cc1F [Compound 1a] | 1.95 | 0.24 | – | – | –
3 | O=C(NNc1cccc(Cl)c1)c1ccc(F)cc1F [Compound 1b] | – | – | 13.6 (≈ 48.1 µM) | 7.8 (≈ 27.6 µM) | MIC [1, 5]: 7.8 µg/mL (≈ 27.6 µM); MIC [2, 7]: 7.8 µg/mL (≈ 27.6 µM)
4 | COc1cccc(NNC(=O)c2ccc(F)cc2F)c1 [Compound 1c] | – | – | 1.95 (≈ 7.01 µM) | 1.95 (≈ 7.01 µM) | –
5 | O=C(NNc1ccc(F)cc1)c1ccc(F)cc1F [Compound 1d] | – | – | 1.95 (≈ 7.32 µM) | 1.95 (≈ 7.32 µM) | –
6 | O=C(NNc1ccc(Cl)cc1)c1ccc(F)cc1F [Compound 1e] | 7.8 | >31.3 | – | – | –
7 | COc1ccc(NNC(=O)c2ccc(F)cc2F)cc1 [Compound 1f] | – | – | 1.95 (≈ 7.01 µM) | 1.95 (≈ 7.01 µM) | –
8 | O=C(NNc1ccc(F)cc1F)c1ccc(F)cc1F [Compound 1g] | – | – | 15.6 (≈ 54.9 µM) | 7.8 (≈ 27.4 µM) | –
9 | O=C(NNc1cc(F)ccc1F)c1ccc(F)cc1F [Compound 1h] | – | – | 31.3 (≈ 110 µM) | 15.6 (≈ 54.9 µM) | –
10 | O=C(NNc1cc(F)cc(F)c1)c1ccc(F)cc1F [Compound 1i] | – | – | 15.6 (≈ 54.9 µM) | 15.6 (≈ 54.9 µM) | –
11 | O=C(NNc1cc(Cl)cc(Cl)c1)c1ccc(F)cc1F [Compound 1j] | – | – | > 31.3 | > 31.3 | MIC [1, 5]: 15.6 µg/mL (≈ 49.2 µM); MIC [2, 7]: > 31.3 µg/mL
12 | O=C(NNc1cccc(F)c1)c1ccccn1 [Compound 2a] | 1.95 | 0.33 | – | – | MIC ([1]; C. auris AR Bank #384 (K)): 1.95 μg/mL^−1; MIC ([2]; C. auris AR Bank #390 (L)): 0.24 μg/mL^−1
13 | O=C(NNc1cccc(Cl)c1)c1ccccn1 [Compound 2b] | 0.98 | 0.98 | – | – | MIC ([1]; C. auris AR Bank #384 (K)): 0.98 μg/mL^−1; MIC ([2]; C. auris AR Bank #390 (L)): 0.49 μg/mL^−1
14 | COc1cccc(NNC(=O)c2ccccn2)c1 [Compound 2c] | 0.98 | 0.98 | – | – | MIC ([1]; C. auris AR Bank #384 (K)): 0.98 μg/mL^−1; MIC ([2]; C. auris AR Bank #390 (L)): 0.98 μg/mL^−1
15 | O=C(NNc1ccc(F)cc1)c1ccccn1 [Compound 2d] | – | – | 3.9 (≈ 16.9 µM) | 0.98 (≈ 4.24 µM) | MIC [1, 9]: 3.9 µg/mL (≈ 16.9 µM); MIC [2, 10]: 0.98 µg/mL (≈ 4.24 µM)
16 | O=C(NNc1ccc(Cl)cc1)c1ccccn1 [Compound 2e] | 1.95 | 1.95 | – | – | MIC ([1]; C. auris AR Bank #384 (K)): 1.95 μg/mL^−1; MIC ([2]; C. auris AR Bank #390 (L)): 1.95 μg/mL^−1
17 | COc1ccc(NNC(=O)c2ccccn2)cc1 [Compound 2f] | – | – | 3.9 (≈ 16 µM) | 0.12 (≈ 0.493 µM) | MIC [1, 9]: 3.9 µg/mL (≈ 16 µM); MIC [2, 10]: 0.12 µg/mL (≈ 0.493 µM)
18 | O=C(NNc1ccc(F)cc1F)c1ccccn1 [Compound 2g] | – | – | 0.49 (≈ 1.97 µM) | 0.12 (≈ 0.482 µM) | MIC [1, 9]: 0.49 µg/mL (≈ 1.97 µM); MIC [2, 10]: 0.12 µg/mL (≈ 0.482 µM)
19 | O=C(NNc1cc(F)ccc1F)c1ccccn1 [Compound 2h] | – | – | 0.24 (≈ 0.963 µM) | 0.98 (≈ 3.93 µM) | MIC [1, 9]: 1.95 µg/mL (≈ 7.82 µM); MIC [2, 10]: 0.98 µg/mL (≈ 3.93 µM)
20 | O=C(NNc1cc(F)cc(F)c1)c1ccccn1 [Compound 2i] | – | – | 0.24 (≈ 0.963 µM) | 0.49 (≈ 1.97 µM) | MIC [1, 9]: 0.98 µg/mL (≈ 3.93 µM); MIC [2, 10]: 0.49 µg/mL (≈ 1.97 µM)
21 | O=C(NNc1cc(Cl)cc(Cl)c1)c1ccccn1 [Compound 2j] | – | – | 7.8 (≈ 27.6 µM) | 1.95 (≈ 6.91 µM) | MIC [1, 9]: 7.8 µg/mL (≈ 27.6 µM); MIC [2, 10]: 3.9 µg/mL (≈ 13.8 µM)
